Laboratory results as given in patent publication US12655116B2, “Substituted isophthalic acid diamides” (Bayer Aktiengesellschaft, priority 2020, dated 2026).

Columns and labels:
[1] = system: STEME; experiment: Post-emergence herbicidal action against STEME; assay type: in vivo, Stellaria media
How it was run: (§1)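 Greenhouse plants in sandy loam were sprayed at the one-leaf stage, 2 to 3 weeks after sowing, with WP or EC formulations as aqueous suspension or emulsion (600 to 800 l/ha water, 0.2% wetting agent). Visual damage was scored about 3 weeks later versus untreated controls, 0% = like control, 100% = dead.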

[2] = system: ALOMY; experiment: Post-emergence herbicidal action against ALOMY; assay type: in vivo, Alopecurus myosuroides; conditions: dosage 20 g/ha, visual assessment about 3 weeks after treatment vs untreated controls
How it was run: as §1

[3] = system: SETVI; experiment: Pre-emergence herbicidal action against SETVI; assay type: in vivo, Setaria viridis; conditions: dosage 80 g/ha
How it was run: (§2)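 Pre-emergence soil-surface spray of formulated compound (WP or EC; 600 to 800 l/ha; 0.2% wetting agent) over seeds sown in sandy loam. After 3 weeks under greenhouse conditions, damage is estimated visually in percent against untreated plants.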

[4] = system: AMARE; experiment: Pre-emergence herbicidal action against AMARE; assay type: in vivo, Amaranthus retroflexus
How it was run: as §2

[5] = system: ABUTH; experiment: Post-emergence herbicidal action against ABUTH; assay type: in vivo, Abutilon theophrasti; conditions: visual assessment about 3 weeks after treatment vs untreated controls
How it was run: as §1

[6] = system: SETVI; experiment: Post-emergence herbicidal action against SETVI; assay type: in vivo, Setaria viridis; conditions: dosage 20 g/ha
How it was run: as §1

[7] = system: ABUTH; experiment: Pre-emergence herbicidal action against ABUTH; assay type: in vivo, Abutilon theophrasti
How it was run: as §2

[8] = system: AVEFA; experiment: Pre-emergence herbicidal action against AVEFA; assay type: in vivo, Avena fatua; conditions: 80 g/ha, pre-emergence
How it was run: as §2

[9] = system: STEME; experiment: Pre-emergence herbicidal action against STEME; assay type: in vivo, Stellaria media
How it was run: as §2

[10] = system: PHBPU; experiment: Post-emergence herbicidal action against PHBPU; assay type: in vivo, Pharbitis purpurea
How it was run: as §1

[11] = system: VIOTR; experiment: Pre-emergence herbicidal action against VIOTR; assay type: in vivo, Viola tricolor
How it was run: as §2

[12] = system: VERPE; experiment: Post-emergence herbicidal action against VERPE; assay type: in vivo, Veronica persica; conditions: 20 g/ha
How it was run: as §1

[13] = system: MATIN; experiment: Pre-emergence herbicidal action against MATIN; assay type: in vivo, Matricaria inodora
How it was run: as §2

[14] = system: VIOTR; experiment: Post-emergence herbicidal action against VIOTR; assay type: in vivo, Viola tricolor; conditions: 20 g/ha
How it was run: as §1

[15] = system: DIGSA; experiment: Post-emergence herbicidal action against DIGSA; assay type: in vivo, Digitaria sanguinalis
How it was run: as §1

[16] = system: AMARE; experiment: Post-emergence herbicidal action against AMARE; assay type: in vivo, Amaranthus retroflexus; conditions: 20 g/ha, visual assessment about 3 weeks after treatment, 100% = plants have died, 0% = like control plants
How it was run: as §1

[17] = system: HORMU; experiment: Post-emergence herbicidal action against HORMU; assay type: in vivo, Hordeum murinum; conditions: dosage 20 g/ha
Experimental: Seeds of monocotyledonous and dicotyledonous weed and crop plants are laid out in sandy loam soil in wood-fiber pots, covered with soil and cultivated in a greenhouse under good growth conditions. 2 to 3 weeks after sowing, the test plants are treated at the one-leaf stage. The compounds of the invention, formulated in the form of wettable powders (WP) or as emulsion concentrates (EC), are then sprayed onto the green parts of the plants in the form of an aqueous suspension or emulsion at a water application rate equivalent to 600 to 800 l/ha, with addition of 0.2% wetting agent. After the test plants have been left to stand in the greenhouse under optimal growth conditions for about 3 weeks, the action of the preparations is assessed visually in comparison to untreated controls (herbicidal action in percent (%): 100% activity=the plants have died, 0% activity=like control plants). […] The tables below illustrate, in an illustrative manner, the post-emergence herbicidal action of the compounds of the invention, the herbicidal activity being stated in percent.

[18] = system: PHBPU; experiment: Pre-emergence herbicidal action against PHBPU; assay type: in vivo, Pharbitis purpurea; conditions: dosage 80 g/ha
How it was run: as §2

[19] = system: DIGSA; experiment: Pre-emergence herbicidal action against DIGSA; assay type: in vivo, Digitaria sanguinalis
How it was run: as §2

[20] = system: ECHCG; experiment: Post-emergence herbicidal action against ECHCG; assay type: in vivo, Echinochloa crus-galli
How it was run: as §1

[21] = system: ECHCG; experiment: Pre-emergence herbicidal action against ECHCG; assay type: in vivo, Echinochloa crus-galli
How it was run: as §2

[22] = 80 g/ha, scored visually after 3 weeks vs untreated controls (100% = plants have died, 0% = like control plants)

CCNC(=O)c1c(C(F)(F)F)ccc(C(=O)Nc2nnco2)c1SC [Example 5-59]
Post-emergence action against STEME in % ([1]; 20 g/ha): 100%
Post-emergence action against STEME in % ([1]; dosage 5 g/ha): 90%
Post-emergence action against ALOMY in % [2]: 80%
Pre-emergence action against SETVI in % [3]: 100%
Pre-emergence action against AMARE in % ([4]; 20 g/ha, scored visually after 3 weeks vs untreated controls, 100% = plants have died, 0% = like control plants): 100%
Pre-emergence action against AMARE in % [4, 22]: 100%
Post-emergence action against ABUTH in % ([5]; dosage 5 g/ha): 90%
Post-emergence action against ABUTH in % ([5]; dosage 20 g/ha): 90%
Post-emergence action against SETVI in % [6]: 90%
Pre-emergence action against ABUTH (herbicidal activity) [7, 22]: 100%
Pre-emergence action against ABUTH (herbicidal activity in percent) ([7]; dosage 20 g/ha, scored visually after 3 weeks vs untreated controls, 100% = plants have died, 0% = like control plants): 100%
Pre-emergence action against AVEFA in % [8]: 80%
Pre-emergence action against STEME in % ([9]; dosage 20 g/ha): 90%
Pre-emergence action against STEME in % ([9]; dosage 80 g/ha): 100%
Post-emergence action against PHBPU in % ([10]; dosage 5 g/ha): 80%
Post-emergence action against PHBPU in % ([10]; dosage 20 g/ha): 90%
Pre-emergence action against VIOTR in % ([11]; dosage 20 g/ha): 100%
Pre-emergence action against VIOTR in % ([11]; dosage 80 g/ha): 100%
Post-emergence action against VERPE in % [12]: 80%
Pre-emergence action against MATIN in % ([13]; dosage 20 g/ha): 80%
Pre-emergence action against MATIN in % ([13]; dosage 80 g/ha): 90%
Post-emergence action against VIOTR in % [14]: 80%
Post-emergence action against DIGSA in % ([15]; 5 g/ha): 90%
Post-emergence action against DIGSA ([15]; 20 g/ha): 90%
Post-emergence action at 20 g/ha against AMARE in % [16]: 90%
Post-emergence action against HORMU in % [17]: 80%
Pre-emergence action against PHBPU in % [18]: 80%
Pre-emergence action against DIGSA in % ([19]; dosage 20 g/ha): 100%
Pre-emergence action against DIGSA in % ([19]; dosage 80 g/ha): 100%
Post-emergence action against ECHCG in % ([20]; dosage 5 g/ha): 80%
Post-emergence action against ECHCG in % ([20]; dosage 20 g/ha): 90%
Pre-emergence action against ECHCG in % ([21]; 20 g/ha): 80%
Pre-emergence action against ECHCG in % ([21]; 80 g/ha): 100%
